Patent US6933312B2, “Pyrazole derivatives” (Agouron Pharmaceuticals, Inc., priority 2002, dated 2005)

How the values were obtained:
[1] = molecular target: T1, purified recombinant HIV-1 reverse transcriptase (Human immunodeficiency virus type 1 group M subtype B, UniProt P04585); assay: Inhibition of HIV-1 Reverse Transcriptase Enzyme; assay type: biochemical; details: Poly(rA)-oligo(dT) [3H]-SPA or [3H]-flashplate enzyme assay; 5% final DMSO
T1 construct: purified recombinant HIV-1 reverse transcriptase (RT, EC, 2.7.7.49); made in house; host or cells: Escherichia coli
Description: The activity of the compounds of the invention as reverse transcriptase inhibitors may be measured using the following assay.
Inhibition of HIV-1 Reverse Transcriptase Enzyme
Using purified recombinant HIV-1 reverse transcriptase (RT, EC, 2.7.7.49) obtained by expression in Escherichia Coli, a 96-well plate assay system is established for assaying a large number of samples using either the Poly(rA)-oligo(dT) Reverse Transcriptase [3H]-SPA enzyme assay system (Amersham NK9020) or the [3H]-flashplate enzyme assay system (NEN—SMP 103) and following the manufacturer's recommendations. The compounds are dissolved in 100% DMSO and diluted with the appropriate buffer to a 5% final DMSO concentration. The inhibitory activity is expressed in percent inhibition relative to DMSO control.

| Structure (SMILES) | melting point [°C] | IC50 [1] [nM] |
| --- | --- | --- |
| Cc1n[nH]c(CN2Cc3ncccc3C2=O)c1Oc1cc(Cl)cc(C#N)c1 | 225 to 227 |  |
| Cc1n[nH]c(CN2Cc3ccccc3C2=O)c1Oc1cc(Cl)cc(C#N)c1 [Example 1, 3-Chloro-5-[3-methyl-5-(1-oxo-1,3-dihydro-isoindol-2ylmethyl)-1H-pyrazol-4-yloxy]-benzonitrile] |  | 76 |
| Cc1n[nH]c(CN2Cc3ccccc3C2=O)c1Oc1cc(C#N)cc(C#N)c1 [Example 4, 5-[3-Methyl-5-(1-oxo-1,3-dihydro-isoindol-2-ylmethyl)-1H-pyrazol-4-yloxy]-isophthalonitrile] | 247 to 248 | 505 |
